Data on 24 compounds can be found in patent US20080051387A1, “TETRAHYDROPYRIDO[3,4-D]PYRIMIDINES AND RELATED ANALOGUES” (priority 2006, published 2008).

For this assay, the target named is T1, chimeric human H3 receptor (Homo sapiens, UniProt Q9Y5N1).
T1 construct: rat Galpha-i2 (Gnai2, rat); made in house; host or cells: Sf9 insect cells (baculovirus); P2 membranes
The assay is described as follows: Chimeric human H3 receptor screening GTP binding assay (inhibition of histamine-stimulated GTP-gamma35S binding, Example 8). It counts as biochemical. The procedure, abridged: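 Sf9 membranes co-expressing chimeric human H3 receptor and heterotrimeric G-protein (35 μg protein) incubated 60 min at room temperature with 4 μM compound, 1 μM histamine and 125 pM GTP-gamma35S in pH 7.4 buffer with 10 μM GDP. Filter-bound radioactivity, nonspecific (10 μM GTP-gammaS) subtracted, reported as % inhibition of histamine signal.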
(In general: GTPγS is a poorly hydrolysed GTP analogue; its binding reports G protein activation.)

[1] abbreviates: 1 h, assay of Example 8, symbol "!" in column headed Ki, read-out: percent inhibition of agonist-induced GTP-gammaS binding to H3.
Where [2] appears, read: symbol ! in Ki, test compound 4 μM, 1 μM histamine, read-out: percent inhibition of agonist-induced GTP-gammaS binding to H3.
Where [3] appears, read: 1 h, assay described in Example 8, symbol "!" in column headed Ki, read-out: Ki ("!": percent inhibition of agonist-induced GTP-gammaS binding to H3).

Where two headings read alike, the source gives them in different places.

T1 sequence (Q9Y5N1 with tags, fused parts or gaps): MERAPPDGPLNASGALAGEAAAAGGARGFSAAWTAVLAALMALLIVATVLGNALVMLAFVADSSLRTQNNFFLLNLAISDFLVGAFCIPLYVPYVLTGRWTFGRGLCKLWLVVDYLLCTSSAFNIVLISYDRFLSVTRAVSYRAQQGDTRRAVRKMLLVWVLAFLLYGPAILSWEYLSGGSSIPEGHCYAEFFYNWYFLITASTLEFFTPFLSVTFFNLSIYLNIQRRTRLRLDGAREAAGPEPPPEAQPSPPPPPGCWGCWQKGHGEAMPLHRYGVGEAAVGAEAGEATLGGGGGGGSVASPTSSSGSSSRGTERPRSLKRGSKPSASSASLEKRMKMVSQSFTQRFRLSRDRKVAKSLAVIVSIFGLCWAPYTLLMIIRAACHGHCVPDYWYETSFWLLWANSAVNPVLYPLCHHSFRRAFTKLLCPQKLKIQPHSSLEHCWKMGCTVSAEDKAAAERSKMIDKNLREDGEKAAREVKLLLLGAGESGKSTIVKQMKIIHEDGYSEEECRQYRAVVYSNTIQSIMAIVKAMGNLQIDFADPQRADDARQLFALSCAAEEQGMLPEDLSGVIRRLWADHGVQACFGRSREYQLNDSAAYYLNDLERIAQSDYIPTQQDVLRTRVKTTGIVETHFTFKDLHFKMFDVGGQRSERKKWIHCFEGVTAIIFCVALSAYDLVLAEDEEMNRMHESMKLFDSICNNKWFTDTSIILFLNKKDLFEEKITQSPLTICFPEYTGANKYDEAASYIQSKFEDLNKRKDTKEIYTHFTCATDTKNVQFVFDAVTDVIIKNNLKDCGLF

As a reminder, the inhibition is the change of the read-out against control, counted positive when it falls. Turning to `COc1ccc(/C=C/C(=O)N2CCc3cnc(N4CCN(C5CCC5)CC4)nc3CC2)c(Cl)c1OC` [Compound 586, 7-[(2E)-3-(2-chloro-3,4-dimethoxyphenyl)prop-2-enoyl]-2-(4-cyclobutylpiperazin-1-yl)-6,7,8,9-tetrahydro-5H-pyrimido[4,5-d]azepine], under setting [1], the inhibition at 4 µM was at least 90%. As to `COC(=O)c1ccc(CN2CCc3c(ncnc3N3CCN(C4CCC4)CC3)C2)cc1` [Compound 139, methyl 4-{[4-(4-cyclobutylpiperazin-1-yl)-5,8-dihydropyrido[3,4-d]pyrimidin-7(6H)-yl]methyl}benzoate], the inhibition at 4 µM under setting [2] was at least 90%. In the case of `O=C(/C=C/c1ccc(C(F)(F)F)cc1)N1CCc2cnc(N3CCN(C4CCC4)CC3)nc2CC1` [Compound 550, 2-(4-cyclobutylpiperazin-1-yl)-7-{(2E)-3-[4-(trifluoromethyl)phenyl]prop-2-enoyl}-6,7,8,9-tetrahydro-5H-pyrimido[4,5-d]azepine], the inhibition at 4 µM under setting [3] is at least 90%. Consider `CCn1nc(C)cc1C(=O)N1CCc2c(ncnc2N2CCN(C3CCC3)CC2)C1` [Compound 40, 4-(4-cyclobutylpiperazin-1-yl)-7-[(1-ethyl-3-methyl-1H-pyrazol-5-yl)carbonyl]-5,6,7,8-tetrahydropyrido[3,4-d]pyrimidine], for which the inhibition at 4 µM under setting [2] was at least 90%. With `O=C(Cc1cccc(Br)c1)N1CCc2cnc(N3CCN(C4CCC4)CC3)nc2CC1` [Compound 289, 7-[(3-bromophenyl)acetyl]-2-(4-cyclobutylpiperazin-1-yl)-6,7,8,9-tetrahydro-5H-pyrimido[4,5-d]azepine], the inhibition at 4 µM under setting [1] is at least 90%. With `O=C(c1cc(C(F)(F)F)cc(C(F)(F)F)c1)N1CCc2cnc(N3CCN(C4CCC4)CC3)nc2CC1` [Compound 402, 7-[3,5-bis(trifluoromethyl)benzoyl]-2-(4-cyclobutylpiperazin-1-yl)-6,7,8,9-tetrahydro-5H-pyrimido[4,5-d]azepine], the inhibition at 4 µM under setting [3] is at least 90%. In the case of `Fc1ccccc1CN1CCc2cnc(N3CCN(C4CCC4)CC3)nc2CC1` [Compound 230, 2-(4-cyclobutylpiperazin-1-yl)-7-(2-fluorobenzyl)-6,7,8,9-tetrahydro-5H-pyrimido[4,5-d]azepine], under setting [1], the inhibition at 4 µM is at least 90%. With `CCCCOc1ccccc1C(=O)N1CCc2cnc(N3CCN(C4CCC4)CC3)nc2CC1` [Compound 417, 7-(2-butoxybenzoyl)-2-(4-cyclobutylpiperazin-1-yl)-6,7,8,9-tetrahydro-5H-pyrimido[4,5-d]azepine], the inhibition at 4 µM under setting [3] is at least 90%.

For `Cc1nc(C)c(C(=O)N2CCc3cnc(N4CCN(C5CCC5)CC4)nc3CC2)s1` [Compound 525, 2-(4-cyclobutylpiperazin-1-yl)-7-[(2,4-dimethyl-1,3-thiazol-5-yl)carbonyl]-6,7,8,9-tetrahydro-5H-pyrimido[4,5-d]azepine], the inhibition at 4 µM under setting [3] is at least 90%.

Consider `O=C(Cc1ccc(Br)cc1)N1CCc2cnc(N3CCN(C4CCC4)CC3)nc2CC1` [Compound 290, 7-[(4-bromophenyl)acetyl]-2-(4-cyclobutylpiperazin-1-yl)-6,7,8,9-tetrahydro-5H-pyrimido[4,5-d]azepine], for which the inhibition at 4 µM under setting [1] was at least 90%. On to `Cc1ccccc1C(=O)N1CCc2c(ncnc2N2CCN(C3CCC3)CC2)C1` [Compound 25, 4-(4-cyclobutylpiperazin-1-yl)-7-(2-methylbenzoyl)-5,6,7,8-tetrahydropyrido[3,4-d]pyrimidine], for which the inhibition at 4 µM under setting [2] is at least 90%. Consider `CC(C)C(C(=O)N1CCc2cnc(N3CCN(C4CCC4)CC3)nc2CC1)c1ccccc1` (stereo not drawn) [Compound 349, 2-(4-cyclobutylpiperazin-1-yl)-7-(3-methyl-2-phenylbutanoyl)-6,7,8,9-tetrahydro-5H-pyrimido[4,5-d]azepine], for which the inhibition at 4 µM under setting [1] is at least 90%. Regarding `O=C(C1CCCO1)N1CCc2c(ncnc2N2CCN(C3CCC3)CC2)C1` (stereo not drawn) [Compound 57, 4-(4-cyclobutylpiperazin-1-yl)-7-(tetrahydrofuran-2-ylcarbonyl)-5,6,7,8-tetrahydropyrido[3,4-d]pyrimidine], under setting [2], the inhibition at 4 µM is at least 90%. For `COc1cccc(CN2CCc3cnc(N4CCN(C5CCC5)CC4)nc3CC2)c1OC` [Compound 260, 2-(4-cyclobutylpiperazin-1-yl)-7-(2,3-dimethoxybenzyl)-6,7,8,9-tetrahydro-5H-pyrimido[4,5-d]azepine], the inhibition at 4 µM under setting [1] is at least 90%. Turning to `O=C(/C=C/c1cccc(Cl)c1)N1CCc2cnc(N3CCN(C4CCC4)CC3)nc2CC1` [Compound 552, 7-[(2E)-3-(3-chlorophenyl)prop-2-enoyl]-2-(4-cyclobutylpiperazin-1-yl)-6,7,8,9-tetrahydro-5H-pyrimido[4,5-d]azepine], the inhibition at 4 µM under setting [3] was at least 90%. For `O=C(c1cc2ccccc2o1)N1CCc2cnc(N3CCN(C4CCC4)CC3)nc2CC1` [Compound 473, 7-(1-benzofuran-2-ylcarbonyl)-2-(4-cyclobutylpiperazin-1-yl)-6,7,8,9-tetrahydro-5H-pyrimido[4,5-d]azepine], the inhibition at 4 µM under setting [3] is at least 90%. As for `Fc1cccc(CN2CCc3c(ncnc3N3CCN(C4CCC4)CC3)C2)c1` [Compound 67, 4-(4-cyclobutylpiperazin-1-yl)-7-(3-fluorobenzyl)-5,6,7,8-tetrahydropyrido[3,4-d]pyrimidine], under setting [2], the inhibition at 4 µM is at least 90%. As for `O=C(/C=C/c1ccc(Cl)cc1)N1CCc2cnc(N3CCN(C4CCC4)CC3)nc2CC1` [Compound 549, 7-[(2E)-3-(4-chlorophenyl)prop-2-enoyl]-2-(4-cyclobutylpiperazin-1-yl)-6,7,8,9-tetrahydro-5H-pyrimido[4,5-d]azepine], under setting [3], the inhibition at 4 µM is at least 90%. For `COc1ncc(Cl)cc1C(=O)N1CCc2cnc(N3CCN(C4CCC4)CC3)nc2CC1` [Compound 544, 7-[(5-chloro-2-methoxypyridin-3-yl)carbonyl]-2-(4-cyclobutylpiperazin-1-yl)-6,7,8,9-tetrahydro-5H-pyrimido[4,5-d]azepine], the inhibition at 4 µM under setting [3] was at least 90%.

For the compound `CC(c1ccc(N2CCCC2)nc1)N1CCc2c(ncnc2N2CCN(C3CCC3)CC2)C1` (stereo not drawn) [Compound 133, 4-(4-cyclobutylpiperazin-1-yl)-7-[1-(6-pyrrolidin-1-ylpyridin-3-yl)ethyl]-5,6,7,8-tetrahydropyrido[3,4-d]pyrimidine], under setting [2], the inhibition at 4 µM is at least 90%. With `O=C(c1ccc(Cl)cc1)N1CCc2cnc(N3CCN(C4CCC4)CC3)nc2CC1` [Compound 387, 7-(4-chlorobenzoyl)-2-(4-cyclobutylpiperazin-1-yl)-6,7,8,9-tetrahydro-5H-pyrimido[4,5-d]azepine], the inhibition at 4 µM under setting [3] is at least 90%. Same read-out and setting: the figure for `O=C(Cc1cccc(F)c1)N1CCc2cnc(N3CCN(C4CCC4)CC3)nc2CC1` [Compound 513, 2-(4-cyclobutylpiperazin-1-yl)-7-[(3-fluorophenyl)acetyl]-6,7,8,9-tetrahydro-5H-pyrimido[4,5-d]azepine] is at least 90%.

Regarding `O=C(COc1ccc(Cl)cc1)N1CCc2cnc(N3CCN(C4CCC4)CC3)nc2CC1` [Compound 326, 7-[(4-chlorophenoxy)acetyl]-2-(4-cyclobutylpiperazin-1-yl)-6,7,8,9-tetrahydro-5H-pyrimido[4,5-d]azepine], under setting [1], the inhibition at 4 µM was at least 90%. On the same count and under the same terms, the figure for `Cn1ccnc1CN1CCc2cnc(N3CCN(C4CCC4)CC3)nc2CC1` [Compound 235, 2-(4-cyclobutylpiperazin-1-yl)-7-[(1-methyl-1H-imidazol-2-yl)methyl]-6,7,8,9-tetrahydro-5H-pyrimido[4,5-d]azepine] is at least 90%.
